Data published in patent EP1363899B1, “QUINAZOLONE DERIVATIVES AS ALPHA 1A/B ADRENERGIC RECEPTOR ANTAGONISTS” (F.HOFFMANN-LA ROCHE AG, priority 2001, dated 2002).

How the values were obtained:
[1] = tested on: hypogastric nerve stimulation-induced increases in intraurethral pressure and phenylephrine-induced increases in diastolic blood pressure; assay: Dog in vivo blood and intraurethral pressure assay; details: anesthetized mongrel dogs, i.v. bolus, increasing doses
Description: The following describes an in vivo assay for measuring the relative effect of test compounds on hypogastric nerve stimulation-induced increases in intraurethral pressure and phenylephrine-induced increases in diastolic blood pressure in anesthetized dog.
Mongrel dogs (10 to 20 kg) were fasted for 12 to 18 hours and anesthetized with […] (35 mg/kg, i.v.). An endotracheal tube was inserted and thereafter the lungs were mechanically ventilated with room air. The right femoral vein was isolated and cannulated with two polyethylene cannulae, one for the administration of a continuous infusion of phenobarbital sodium (5 to 10 mg/kg/hr) and the other for bolus administration of test substances. The right femoral artery was isolated and cannulated to the abdominal aorta with a fluid filled polyethylene cannula connected to an external pressure transducer for monitoring diastolic aortic pressure (DAP). The bladder was exposed via a ventral midline abdominal incision and emptied of urine through a 22 gauge needle. The bladder was cannulated through a stab incision with a water filled balloon catheter connected to an external pressure transducer for monitoring prostatic intraurethral pressure (IUP). The right hypogastric nerve (HGN) was carefully isolated and attached to a Dastre's electrode for nerve stimulation. […]

alpha-1B adrenoceptor = biological target: T1, alpha-1B adrenoceptor (Homo sapiens, UniProt P35368); assay: [3H]prazosin binding (alpha1-adrenoceptor) assay, alpha-1B; details: membranes of transfected CHO-KI cells, read-out: affinity towards the alpha-1B adrenoceptor (pKi) (converted)
T1 construct: expressed in transfected cells; host or cells: CHO-K1
T1 sequence (P35368 1-520): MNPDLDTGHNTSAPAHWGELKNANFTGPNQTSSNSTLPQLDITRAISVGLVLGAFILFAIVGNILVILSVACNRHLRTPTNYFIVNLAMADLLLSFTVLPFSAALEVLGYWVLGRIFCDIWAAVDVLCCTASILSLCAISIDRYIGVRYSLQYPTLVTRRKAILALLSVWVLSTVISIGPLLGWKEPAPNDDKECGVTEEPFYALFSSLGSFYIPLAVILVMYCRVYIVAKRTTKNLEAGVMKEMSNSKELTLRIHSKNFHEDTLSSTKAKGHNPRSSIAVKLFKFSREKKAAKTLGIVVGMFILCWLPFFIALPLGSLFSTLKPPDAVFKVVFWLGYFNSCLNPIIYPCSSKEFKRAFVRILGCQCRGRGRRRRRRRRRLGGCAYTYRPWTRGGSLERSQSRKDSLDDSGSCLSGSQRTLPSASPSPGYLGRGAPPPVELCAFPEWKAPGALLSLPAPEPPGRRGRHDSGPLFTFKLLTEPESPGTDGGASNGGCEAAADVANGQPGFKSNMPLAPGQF
Description: (§1) Alpha1A, alpha1B, and alpha1D adrenoceptor transfected CHO-KI cells, prepared using the methods described by Chang et al., FEBS Lett. 1998, 422:279-283, were grown to confluence in T-162 tissue culture flasks in Ham's F-12 culture medium supplemented with 10% fetal bovine serum, geneticin (150 µg/mL) and streptomycin/penicillin (30 µg/mL/30 µg/mL) at 37 °C in 7% CO2. Cells were harvested by incubating with phosphate-buffered saline (PBS) containing 30 µM EDTA for 5-10 min at 37 °C. Cells were pelleted by centrifuging at 500 x g for 5 min, and the pelleted cells were homogenized (Polytron homogenizer) in 10 vols (w/v) of 50 mM Tris, 1 mM EDTA, (homogenisation buffer, pH 7.4 at 4 °C). The homogenate was centrifuged at 45,000 x g for 20 min. The pellet was resuspended in the homogenizing buffer and rehomogenized. The resulting homogenate was centrifuged at 45,000 x g for 20 min. The pellet was resuspended in 50 mM Tris buffer (pH 7.4 at 4 °C), aliquoted, frozen, and stored at -80 °C for further use.
(§2) The membranes were thawed at room temperature and diluted in assay buffer (50 mM Tris buffer at […]) at 37 °C and homogenized using the Polytron tissue disrupter. The membranes were incubated with the radioligand ([^3H]prazosin, NEN, 0.1 - 0.5 nM) and test compound at 37 °C for 30 min. The membranes were then filtered over polyethyleneimine-treated GF/B unifilter plates using a Packard Filtermate Harvester and washed with ice-cold 50 mM Tris-HCl, 1 mM EDTA buffer (3 x 3 sec. washes). Scintillation cocktail was added to the filter plates and bound radioligand determined by liquid scintillation spectrophotometry.
(§3) For each experiment, total binding (in the absence of any test or reference compounds) and non-specific binding (10 µM phentolamine) were determined. For each sample tested, the concentration producing 50% inhibition of binding (IC50) and Hill Slope (nH) was determined using iterative non-linear curve fitting techniques with Kaleidagraph (Synergy Software) or other appropriate software. If the radioligand KD was known, the inhibition dissociation constant (K1) of each ligand was determined according to the method of Cheng and Prusoff (Cheng, Y-C. and Prusoff, W.H., Biochem. Pharmacol., 1973, 22, 3099-3108).

alpha-1D adrenoceptor = biological target: T2, alpha-1D adrenoceptor (Homo sapiens, UniProt P25100); assay: [3H]prazosin binding (alpha1-adrenoceptor) assay, alpha-1D; details: membranes of transfected CHO-KI cells, read-out: affinity towards the alpha-1D adrenoceptor (pKi) (converted)
T2 construct: expressed in transfected cells; host or cells: CHO-K1
T2 sequence (P25100 1-572): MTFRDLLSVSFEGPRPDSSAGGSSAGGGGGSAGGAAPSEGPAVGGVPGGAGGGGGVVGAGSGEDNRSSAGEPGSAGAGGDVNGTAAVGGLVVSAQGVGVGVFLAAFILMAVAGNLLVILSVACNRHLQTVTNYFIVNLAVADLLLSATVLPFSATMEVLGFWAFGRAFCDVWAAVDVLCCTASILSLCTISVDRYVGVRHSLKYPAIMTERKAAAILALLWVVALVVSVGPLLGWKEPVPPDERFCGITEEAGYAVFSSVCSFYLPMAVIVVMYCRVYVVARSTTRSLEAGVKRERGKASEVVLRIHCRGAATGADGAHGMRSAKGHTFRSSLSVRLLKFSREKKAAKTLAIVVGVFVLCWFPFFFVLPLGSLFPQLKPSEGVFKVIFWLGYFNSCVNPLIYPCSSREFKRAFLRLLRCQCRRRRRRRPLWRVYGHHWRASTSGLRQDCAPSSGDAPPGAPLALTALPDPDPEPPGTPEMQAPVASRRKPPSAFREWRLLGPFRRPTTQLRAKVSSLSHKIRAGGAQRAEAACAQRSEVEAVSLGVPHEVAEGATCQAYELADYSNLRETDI
Description: as §1, §2, §3

alpha-1A adrenoceptor = biological target: T3, alpha-1A adrenoceptor (Homo sapiens, UniProt P35348); assay: [3H]prazosin binding (alpha1-adrenoceptor) assay, alpha-1A; details: membranes of transfected CHO-KI cells, read-out: affinity towards the alpha-1A adrenoceptor (pKi) (converted)
T3 construct: expressed in transfected cells; host or cells: CHO-K1
T3 sequence (P35348 1-466): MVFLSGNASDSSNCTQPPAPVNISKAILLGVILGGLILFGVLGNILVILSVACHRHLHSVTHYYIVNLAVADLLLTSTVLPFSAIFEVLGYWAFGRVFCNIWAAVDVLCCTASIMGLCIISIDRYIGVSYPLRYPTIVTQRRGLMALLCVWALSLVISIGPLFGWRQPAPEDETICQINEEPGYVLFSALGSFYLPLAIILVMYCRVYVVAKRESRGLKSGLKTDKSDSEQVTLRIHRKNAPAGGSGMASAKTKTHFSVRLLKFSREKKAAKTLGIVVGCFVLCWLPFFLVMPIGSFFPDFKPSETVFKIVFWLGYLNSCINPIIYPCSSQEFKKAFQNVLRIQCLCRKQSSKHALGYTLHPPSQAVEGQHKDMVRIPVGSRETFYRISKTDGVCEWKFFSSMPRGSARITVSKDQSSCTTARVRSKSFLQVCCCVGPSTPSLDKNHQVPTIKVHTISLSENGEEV
Description: as §1, §2, §3

Row | SMILES | inhibition of HGN stimulation-induced increases in IUP and of phenylephrine-induced increases in DAP [1] | Ki (alpha-1B adrenoceptor) | Ki (alpha-1D adrenoceptor) | Ki (alpha-1A adrenoceptor)
1 | COc1cc2nc(N3CCN(C(=O)c4ccco4)CC3)nc(N)c2cc1OC [prazosin] | inhibited increases in IUP and DAP in similar fashion |  |  | 
2 | COc1cc2c(cc1OC)CN(C1=Nc3cc(OC)c(OC)cc3S(=O)(=O)N1)CC2 [Compound 101, 3-(6,7-dimethoxy-3,4-dihydro-1H-isoquinolin-2-yl)-6,7-dimethoxy-2H-benzo[1,2,4]thiadiazine-1,1-dioxide] |  | 7.08 nM | 66.1 nM | 1.62 nM
3 | COc1cc2[nH]c(N3CCc4cc(O)c(O)cc4C3C)nc(=O)c2cc1OC (stereo not shown) [Compound 142, 2-(6,7-dihydroxy-1-methyl-3,4-dihydro-1H-isoquinolin-2-yl)-6,7-dimethoxy-1H-quinazolin-4-one] |  | 955 nM | 38900 nM | 219 nM
4 | COc1cc2nc(N3CCc4c(ncnc4Nc4cccc(C)n4)C3)[nH]c(=O)c2cc1OC [Compound 208, 6,7-dimethoxy-2-[4-(6-methyl-pyridin-2-ylamino)-5,8-dihydro-6H-pyrido[3,4-d]pyrimidin-7-yl]-3H-quinazolin-4-one] |  | 13.2 nM | 182 nM | 3.8 nM
5 | COc1cc2nc(N3CCc4c(cccc4-c4cccnc4)C3)[nH]c(=O)c2cc1OC [Compound 112, 6,7-dimethoxy-2-(5-pyridin-3-yl-3,4-dihydro-1H-isoquinolin-2-yl)-3H-quinazolin-4-one] |  | 2.04 nM | 132 nM | 1.17 nM
6 | COc1cc2nc(N3CCc4c(cccc4N=CN(C)C)C3)[nH]c(=O)c2cc1OC [Compound 801, N-[2-(6,7-dimethoxy-4-oxo-3,4-dihydro-quinazolin-2-yl)-1,2,3,4-tetrahydro-isoquinolin-5-yl]-N,N-dimethyl-formamidine] |  | 4.47 nM | 372 nM | 2.75 nM
7 | COc1cc2nc(N3CCc4ccc(N5CCCC5)cc4C3)[nH]c(=O)c2cc1OC [Compound 113, 6,7-dimethoxy-2-(7-pyrrolidin-1-yl-3,4-dihydro-1H-isoquinolin-2-yl)-3H-quinazolin-4-one] |  | 0.912 nM | 33.9 nM | 2.04 nM
8 | COc1cc2[nH]c(N3CCn4c(cnc4N4CCOCC4)C3)nc(=O)c2cc1OC [Compound 307, 6,7-dimethoxy-2-(3-morpholin-4-yl-5,6-dihydro-8H-imidazo[1,5-α]pyrazin-7-yl)-1H-quinazolin-4-one] |  | 17.4 nM | 123 nM | 7.76 nM
9 | COc1cc2nc(N3CCc4c(ncn4-c4ccc5c(c4)OCO5)C3)[nH]c(=O)c2cc1OC [Compound 612, 2-(1-benzo[1,3]dioxol-5-yl-1,4,6,7-tetrahydro-imidazo[4,5-c]pyridin-5-yl)-6,7-dimethoxy-3H-quinazolin-4-one] |  | 12.3 nM | 178 nM | 2.69 nM
10 | COc1cc2[nH]c(N3CCc4c(cccc4N4CCOCC4)C3)nc(=O)c2cc1OC [Compound 131, 6,7-dimethoxy-2-(5-morpholin-4-yl-3,4-dihydro-1H-isoquinolin-2-yl)-1H-quinazolin-4-one] |  | 39.8 nM | 955 nM | 89.1 nM
